In PubChem BioAssay (NCI):
Where “and” joins values, the source holds several entries; their conditions need not be identical. Equal values may be shown once.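 The compound was tested at five concentrations on cells cultured in 96-well plates, with a 48-hour exposure period. GI50: concentration for 50% inhibition of growth. The concentration for full growth arrest is given as TGI.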

Columns and labels:
Experiment in all cases: inhibition of tumour cell growth, NCI panel, 48 h
ACHN renal = test system: ACHN renal
CCRF-CEM leukemia = test system: CCRF-CEM leukemia
M14 melanoma = test system: M14 melanoma
MCF7 breast = test system: MCF7 breast
OVCAR-5 ovarian = test system: OVCAR-5 ovarian
OVCAR-8 ovarian = test system: OVCAR-8 ovarian
PC-3 prostate = test system: PC-3 prostate
SF-539 CNS = test system: SF-539 CNS
SW-620 colon = test system: SW-620 colon
UACC-257 melanoma = test system: UACC-257 melanoma

| SMILES | GI50 (ACHN renal) | TGI (ACHN renal) | GI50 (CCRF-CEM leukemia) | TGI (CCRF-CEM leukemia) | GI50 (M14 melanoma) | TGI (M14 melanoma) | GI50 (MCF7 breast) | TGI (MCF7 breast) | GI50 (OVCAR-5 ovarian) | TGI (OVCAR-5 ovarian) | GI50 (OVCAR-8 ovarian) | TGI (OVCAR-8 ovarian) | GI50 (PC-3 prostate) | TGI (PC-3 prostate) | GI50 (SF-539 CNS) | TGI (SF-539 CNS) | GI50 (SW-620 colon) | TGI (SW-620 colon) | GI50 (UACC-257 melanoma) | TGI (UACC-257 melanoma) |
| --- | --- | --- | --- | --- | --- | --- | --- | --- | --- | --- | --- | --- | --- | --- | --- | --- | --- | --- | --- | --- |
| FC(F)(F)c1[nH]ncc1-c1nc2c(N3CCCCC3)cc3[nH]ncc3c2c2c1CCCC2 | 498 nM | > 28000 nM | 1140 nM | > 50000 nM | 600 nM | 1420 nM | 514 nM | > 15400 nM | 1040 nM | 3610 nM | 825 nM | > 50000 nM | 910 nM | > 13800 nM | 567 nM | 1220 nM | 556 nM | 2670 nM | 1090 nM | 3580 nM |
| Cc1cc(O)c(C2=NN(c3ccc(S(N)(=O)=O)cc3)C(c3ccccc3O)C2)cc1Cl (stereo not given) | 2580 nM | 8550 nM | 3120 nM | > 24700 nM | 1750 nM | 3390 nM | 2250 nM | 6120 nM | 1700 nM | 3610 nM | 2800 nM | 8540 nM | 1330 nM | 3260 nM | 1610 nM | 3040 nM | 1700 nM | 3390 nM | 3450 nM | 8740 nM |
| COc1ccccc1-c1ccc2nc(NC(=O)Nc3cc(C(F)(F)F)cc(C(F)(F)F)c3)sc2c1 | 2140 nM | 7710 nM | 2430 nM | 15000 nM | 1540 nM | 3220 nM | 2280 nM | 10900 nM | 2540 nM | 9660 nM | 3040 nM | 11200 nM | 1490 nM | 6930 nM | 1990 nM | 5500 nM | 3040 nM | 11200 nM | 2310 nM | 6520 nM |
| COc1cccc2c1C(=O)c1c(O)c3c(c(O)c1C2=O)C[C@@](O)(C(=O)CO)C[C@@H]3OC1CC(OC(C)=O)C(OC(C)=O)C(C)O1 (stereo not given in full) | 152 nM | 1440 nM | 43.5 nM | 764 nM | 529 nM | 2260 nM | < 28.4 nM | 7640 nM | 1160 nM | 5000 nM | 479 nM | > 58100 nM | 1480 nM | > 23300 nM | 267 nM | 1900 nM | 277 nM | 3450 nM | 1370 nM | 4250 nM |
| COc1cccc2c1nc1cccc(OC)c1[n+]2[O-] | 2200 nM | 9960 nM | 2350 nM | 13300 nM | 3470 nM | 16200 nM | 941 nM | 12900 nM | 27800 nM | 93000 nM | 4400 nM | 25000 nM | 13300 nM | 37000 nM | 3910 nM | 17300 nM | 3000 nM | 15900 nM | 13100 nM | 35000 nM |
| CC(C)(C)CC(C)(C)N(CSc1ccc(Cl)cc1)CSc1ccc(Cl)cc1 | 2560 nM | 11400 nM | 366 nM | 3380 nM | 1920 nM | 5910 nM | 2200 nM | 10200 nM | 2190 nM | 6260 nM | 1740 nM | 7570 nM | 472 nM | 4300 nM | 1230 nM | 2560 nM | 2020 nM | 4930 nM | 1850 nM | 6180 nM |
| COc1ccc(-c2ccc3ncc4c(c3c2)n(-c2ccc(N3CCNCC3)c(C(F)(F)F)c2)c(=O)n4C)cn1 | < 10 nM and 9.59 nM | 1100 nM and 782 nM | < 10 nM and 6.64 nM | 282 nM and 144 nM | 4.55 nM | 62.1 nM | 3.5 nM | 79.3 nM | < 11.5 nM and 7.52 nM | – | < 10 nM and 9.48 nM | 332 nM and 396 nM | < 10 nM and 2.81 nM | 799 nM and 1120 nM | < 11 nM and 13.2 nM | 60.6 nM and 58.7 nM | 10.3 nM and 11.7 nM | 131 nM and 132 nM | 16.9 nM and 21 nM | 110 nM and 118 nM |
| COc1ccc(C2=CC(c3ccc(Oc4ccnc5cc(Cl)ccc45)c(OC)c3)c3c(nc(OC)[nH]c3=O)N2)cc1 (stereo not given) | 5240 nM | > 100000 nM | 3250 nM | > 100000 nM | 88400 nM | > 100000 nM | 3560 nM | > 100000 nM | 24600 nM | > 100000 nM | 4850 nM | > 100000 nM | 6290 nM | > 100000 nM | 20700 nM | > 100000 nM | 4340 nM | > 100000 nM | 26400 nM | > 100000 nM |
| CN(C)CCNC(=O)c1cccc2cc([N+](=O)[O-])ccc12 | 384 nM and 127 nM | 2940 nM and 604 nM | 719 nM and 141 nM | 6070 nM and 939 nM | 1600 nM and 441 nM | 3320 nM and 1200 nM | – | 15300 nM | – | 5470 nM and 870 nM | 605 nM and 157 nM | 7430 nM and 1650 nM | – | 9440 nM | 886 nM and 146 nM | 2340 nM and 606 nM | 519 nM and 180 nM | 17700 nM and 5640 nM | – | 897 nM |
